Reference: publication PMC12472322, “Structure–Activity Relationship Study of 3-Alkynyl-6-aryl-isothiazolo[4,3-b]pyridines as Dual Inhibitors of the Lipid Kinases PIKfyve and PIP4K2C” (Pharmaceuticals, 2025)

target: T1, PIKfyve (Homo sapiens, UniProt Q9Y2I7); assay: biochemical PIKfyve mobility shift assay (Nanosyn); conditions: not given
T1 construct: purchased Nanosyn, Santa Clara, CA, USA (contract assay service)
T1 sequence (Q9Y2I7 whole entry): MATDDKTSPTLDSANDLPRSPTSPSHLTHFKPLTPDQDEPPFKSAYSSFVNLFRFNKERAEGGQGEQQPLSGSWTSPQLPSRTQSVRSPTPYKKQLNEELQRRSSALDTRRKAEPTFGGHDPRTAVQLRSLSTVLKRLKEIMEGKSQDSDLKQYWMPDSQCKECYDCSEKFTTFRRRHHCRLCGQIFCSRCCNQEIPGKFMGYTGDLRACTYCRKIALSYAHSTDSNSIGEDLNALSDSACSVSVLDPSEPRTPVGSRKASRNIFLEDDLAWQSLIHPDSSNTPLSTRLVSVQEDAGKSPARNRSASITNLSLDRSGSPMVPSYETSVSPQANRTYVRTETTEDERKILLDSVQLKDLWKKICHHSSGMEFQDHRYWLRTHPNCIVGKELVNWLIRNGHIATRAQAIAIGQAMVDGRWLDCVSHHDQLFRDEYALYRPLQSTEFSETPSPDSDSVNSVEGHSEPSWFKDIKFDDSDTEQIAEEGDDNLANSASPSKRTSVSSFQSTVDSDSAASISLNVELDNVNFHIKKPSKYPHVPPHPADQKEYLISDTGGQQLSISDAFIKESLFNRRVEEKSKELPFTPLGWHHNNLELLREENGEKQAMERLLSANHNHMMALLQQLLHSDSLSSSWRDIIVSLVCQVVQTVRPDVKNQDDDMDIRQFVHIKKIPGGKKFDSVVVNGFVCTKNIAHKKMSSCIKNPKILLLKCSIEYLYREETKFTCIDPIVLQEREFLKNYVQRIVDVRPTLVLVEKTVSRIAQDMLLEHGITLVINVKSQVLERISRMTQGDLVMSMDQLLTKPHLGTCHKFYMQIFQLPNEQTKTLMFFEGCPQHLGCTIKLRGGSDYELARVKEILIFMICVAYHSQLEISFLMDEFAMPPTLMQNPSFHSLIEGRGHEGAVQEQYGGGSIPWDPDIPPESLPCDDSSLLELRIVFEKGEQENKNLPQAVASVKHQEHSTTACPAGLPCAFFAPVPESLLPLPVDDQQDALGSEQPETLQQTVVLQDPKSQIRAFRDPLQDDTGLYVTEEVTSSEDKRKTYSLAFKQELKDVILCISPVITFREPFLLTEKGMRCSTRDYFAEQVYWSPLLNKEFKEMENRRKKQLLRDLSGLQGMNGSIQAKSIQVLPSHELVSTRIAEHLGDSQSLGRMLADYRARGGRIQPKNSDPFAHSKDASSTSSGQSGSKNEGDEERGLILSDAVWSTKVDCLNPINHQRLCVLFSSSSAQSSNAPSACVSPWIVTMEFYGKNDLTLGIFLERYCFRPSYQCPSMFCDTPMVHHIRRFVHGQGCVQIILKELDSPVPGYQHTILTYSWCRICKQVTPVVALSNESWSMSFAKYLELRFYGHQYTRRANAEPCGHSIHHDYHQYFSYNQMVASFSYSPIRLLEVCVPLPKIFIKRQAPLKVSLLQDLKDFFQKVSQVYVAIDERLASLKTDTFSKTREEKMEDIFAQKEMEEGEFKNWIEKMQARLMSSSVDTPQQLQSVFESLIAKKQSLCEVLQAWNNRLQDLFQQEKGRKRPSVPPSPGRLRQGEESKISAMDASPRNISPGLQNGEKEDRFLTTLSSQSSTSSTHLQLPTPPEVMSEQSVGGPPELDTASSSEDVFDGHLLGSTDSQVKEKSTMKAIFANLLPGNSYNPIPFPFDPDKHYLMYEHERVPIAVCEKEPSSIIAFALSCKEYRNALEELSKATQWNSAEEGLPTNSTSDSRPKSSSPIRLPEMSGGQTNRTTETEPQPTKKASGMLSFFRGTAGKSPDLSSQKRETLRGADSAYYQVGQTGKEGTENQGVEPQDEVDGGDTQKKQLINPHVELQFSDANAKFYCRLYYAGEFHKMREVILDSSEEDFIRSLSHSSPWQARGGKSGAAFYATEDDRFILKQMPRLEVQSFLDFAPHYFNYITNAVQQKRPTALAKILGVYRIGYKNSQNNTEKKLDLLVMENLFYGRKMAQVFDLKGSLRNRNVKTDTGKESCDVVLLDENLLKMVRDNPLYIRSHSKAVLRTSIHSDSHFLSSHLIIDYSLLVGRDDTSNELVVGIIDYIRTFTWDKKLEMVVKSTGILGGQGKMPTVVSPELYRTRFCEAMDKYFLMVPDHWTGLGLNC

Row | Structure (SMILES) | PIKfyve inhibition in words
1 | COc1ccc(-c2cnc3c(NCc4cccnc4)snc3c2)cc1OC [Compound 15, 6-(3,4-Dimethoxyphenyl)-N-(pyridin-3-ylmethyl)isothiazolo[4,3-b]pyridin-3-amine] | practically inactive
2 | COc1ccc(-c2cnc3c(NC(=O)c4cccnc4)snc3c2)cc1OC [Compound 20, N-(6-(3,4-Dimethoxyphenyl)isothiazolo[4,3-b]pyridin-3-yl)nicotinamide] | practically inactive

same assay, conditions: Tables 1-4 and text

Row | IC50 | Structure (SMILES)
3 | 309 nM | COc1ccc(-c2cnc3c(/C=C(\OCCN(C)C)c4cccnc4)snc3c2)cc1OC [Compound 23b]
4 | 30 nM | COc1ccc(-c2cnc3c(C#Cc4ccccn4)snc3c2)cc1OC [Compound 7y, 6-(3,4-Dimethoxyphenyl)-3-(pyridin-2-ylethynyl)isothiazolo[4,3-b]pyridine]
5 | 1840 nM | COc1ccc(-c2cnc3c(C#CCNS(=O)(=O)c4ccccc4)snc3c2)cc1OC [Compound 11b, N-(3-(6-(3,4-Dimethoxyphenyl)isothiazolo[4,3-b]pyridin-3-yl)prop-2-yn-1-yl)benzenesulfonamide]
6 | 42 nM | COc1ccc(-c2cnc3c(C#Cc4cc(C)cnc4F)snc3c2)cc1OC [Compound 7v, 6-(3,4-Dimethoxyphenyl)-3-((2-fluoro-5-methylpyridin-3-yl)ethynyl)isothiazolo[4,3-b]pyridine]
7 | 75 nM | COc1ccc(-c2cnc3c(C#Cc4ccncc4)snc3c2)cc1OC [Compound 7x, 6-(3,4-Dimethoxyphenyl)-3-(pyridin-4-ylethynyl)isothiazolo[4,3-b]pyridine]
8 | 2040 nM | COc1ccc(-c2cnc3c(C#CCNC(=O)c4ccccc4)snc3c2)cc1OC [Compound 11a, N-(3-(6-(3,4-Dimethoxyphenyl)isothiazolo[4,3-b]pyridin-3-yl)prop-2-yn-1-yl)benzamide]
9 | 360 nM | COc1ccc(-c2cnc3c(C#Cc4ccc(C)nc4)snc3c2)cc1OC [Compound 7g, 6-(3,4-Dimethoxyphenyl)-3-((6-methylpyridin-3-yl)ethynyl)isothiazolo[4,3-b]pyridine]
10 | 39 nM | COc1ccc(-c2cnc3c(C#Cc4cccc(Cl)c4)snc3c2)cc1OC [Compound 7d, 6-(3,4-Dimethoxyphenyl)-3-((3-chlorophenyl)ethynyl)isothiazolo[4,3-b]pyridine]
11 | > 10000 nM | COc1ccc(-c2cnc3c(C#CCNC(=O)Nc4ccccc4)snc3c2)cc1OC [Compound 11c, 1-(3-(6-(3,4-Dimethoxyphenyl)isothiazolo[4,3-b]pyridin-3-yl)prop-2-yn-1-yl)-3-phenylurea]
12 | 5670 nM | COc1ccc(C#Cc2snc3cc(-c4ccc(OC)c(OC)c4)cnc23)c(OC)n1 [Compound 7u, 6-(3,4-Dimethoxyphenyl)-3-((2,6-dimethoxypyridin-3-yl)ethynyl)isothiazolo[4,3-b]pyridine]
13 | 613 nM | COc1ccc(-c2cnc3c(/C=C(/c4cccnc4)N4CCOCC4)snc3c2)cc1OC [Compound 23c, (Z)-4-(2-(6-(3,4-Dimethoxyphenyl)isothiazolo[4,3-b]pyridin-3-yl)-1-(pyridin-3-yl)vinyl)morpholine]
14 | 850 nM | CCCC#Cc1snc2cc(-c3ccc(OC)c(OC)c3)cnc12 [Compound 7a, 6-(3,4-Dimethoxyphenyl)-3-(pent-1-yn-1-yl)isothiazolo[4,3-b]pyridine]
15 | 120 nM | COc1ccc(-c2cnc3c(C#Cc4ccc(F)nc4)snc3c2)cc1OC [Compound 7j, 6-(3,4-Dimethoxyphenyl)-3-((6-fluoropyridin-3-yl)ethynyl)isothiazolo[4,3-b]pyridine]
16 | 110 nM | CCOc1ncccc1C#Cc1snc2cc(-c3ccc(OC)c(OC)c3)cnc12 [Compound 7s, 6-(3,4-Dimethoxyphenyl)-3-((2-ethoxypyridin-3-yl)ethynyl)isothiazolo[4,3-b]pyridine]
17 | 250 nM | COc1ccc(-c2cnc3c(C#Cc4ccc(F)cc4)snc3c2)cc1OC [Compound 7c, 6-(3,4-Dimethoxyphenyl)-3-((4-fluorophenyl)ethynyl)isothiazolo[4,3-b]pyridine]
18 | 1540 nM | COc1ccc(-c2cnc3c(/C=C(\SCCO)c4cccnc4)snc3c2)cc1OC [Compound 23d, (Z)-2-((2-(6-(3,4-Dimethoxyphenyl)isothiazolo[4,3-b]pyridin-3-yl)-1-(pyridin-3-yl)vinyl)thio)ethan-1-ol]
19 | 59 nM | COc1ccc(-c2cnc3c(C#Cc4ccccc4)snc3c2)cc1OC [Compound 7b, 6-(3,4-Dimethoxyphenyl)-3-(phenylethynyl)isothiazolo[4,3-b]pyridine]
20 | 525 nM | CO/C(=C\c1snc2cc(-c3ccc(OC)c(OC)c3)cnc12)c1cccnc1 [Compound 23a, (Z)-6-(3,4-Dimethoxyphenyl)-3-(2-methoxy-2-(pyridin-3-yl)vinyl)isothiazolo[4,3-b]pyridine]

More lines, now with the values behind:

Row | Structure (SMILES) | IC50
21 | CN(C)C(=O)c1ccc(-c2cnc3c(C#Cc4cccnc4)snc3c2)cc1 [Compound 3o, N,N-Dimethyl-4-(3-(pyridin-3-ylethynyl)isothiazolo[4,3-b]pyridin-6-yl)benzamide] | 25 nM
22 | CN(C)C(=O)c1cccc(-c2cnc3c(C#Cc4cccnc4)snc3c2)c1 [Compound 3q, N,N-Dimethyl-3-(3-(pyridin-3-ylethynyl)isothiazolo[4,3-b]pyridin-6-yl)benzamide] | 18 nM
23 | COc1ccc(-c2cnc3c(CCc4cccnc4)snc3c2)cc1OC [Compound 22, 6-(3,4-Dimethoxyphenyl)-3-(2-(pyridin-3-yl)ethyl)isothiazolo[4,3-b]pyridine] | 33 nM
24 | COCCOc1ccc(-c2cnc3c(C#Cc4cccnc4)snc3c2)cc1 [Compound 3j, 6-(4-(2-Methoxyethoxy)phenyl)-3-(pyridin-3-ylethynyl)isothiazolo[4,3-b]pyridine] | 2.1 nM
25 | O=C(c1cccc(-c2cnc3c(C#Cc4cccnc4)snc3c2)c1)N1CCCC1 [Compound 3r, (3-(3-(Pyridin-3-ylethynyl)isothiazolo[4,3-b]pyridin-6-yl)phenyl)(pyrrolidin-1-yl)methanone] | 6.1 nM
26 | C(#Cc1snc2cccnc12)c1cccnc1 [Compound 2a, 3-(Pyridin-3-ylethynyl)isothiazolo[4,3-b]pyridine] | 1150 nM
27 | COc1ccc(-c2cnc3c(NCc4cccnc4)snc3c2)cc1OC [Compound 15, 6-(3,4-Dimethoxyphenyl)-N-(pyridin-3-ylmethyl)isothiazolo[4,3-b]pyridin-3-amine] | > 10000 nM
28 | CN(C)c1ccc(-c2cnc3c(C#Cc4cccnc4)snc3c2)cc1 [Compound 3d, N,N-Dimethyl-4-(3-(pyridin-3-ylethynyl)isothiazolo[4,3-b]pyridin-6-yl)aniline] | 2.2 nM
29 | COc1ccc(-c2cnc3c(NC(=O)c4cccnc4)snc3c2)cc1OC [Compound 20, N-(6-(3,4-Dimethoxyphenyl)isothiazolo[4,3-b]pyridin-3-yl)nicotinamide] | 4290 nM
30 | O=C(c1ccc(-c2cnc3c(C#Cc4cccnc4)snc3c2)cc1)N1CCCC1 [Compound 3p, (4-(3-(Pyridin-3-ylethynyl)isothiazolo[4,3-b]pyridin-6-yl)phenyl)(pyrrolidin-1-yl)methanone] | 20 nM
31 | Cc1ccccc1-c1cnc2c(C#Cc3cccnc3)snc2c1 [Compound 3c, 3-(Pyridin-3-ylethynyl)-6-(2-tolyl)isothiazolo[4,3-b]pyridine] | 8.2 nM
32 | COc1ccc(-c2cnc3c(C#CCNc4ccccc4)snc3c2)cc1OC [Compound 13, N-(3-(6-(3,4-Dimethoxyphenyl)isothiazolo[4,3-b]pyridin-3-yl)prop-2-yn-1-yl)aniline] | 184 nM
33 | COc1ccc(-c2cnc3c(-c4cccnc4)snc3c2)cc1OC [Compound 17, 6-(3,4-Dimethoxyphenyl)-3-(pyridin-3-yl)isothiazolo[4,3-b]pyridine] | 602 nM

same assay, conditions: ratio of IC50 values

Row | Structure (SMILES) | fold less potent on PIKfyve relative to RMC-113
34 | CCCC#Cc1snc2cc(-c3ccc(OC)c(OC)c3)cnc12 [Compound 7a, 6-(3,4-Dimethoxyphenyl)-3-(pent-1-yn-1-yl)isothiazolo[4,3-b]pyridine] | 100 fold

same assay, conditions: values given in text in nM

Row | Structure (SMILES) | IC50
35 | Cc1ccccc1-c1cnc2c(C#Cc3cccnc3)snc2c1 [Compound 3c, 3-(Pyridin-3-ylethynyl)-6-(2-tolyl)isothiazolo[4,3-b]pyridine] | 8 nM
